Experimental data reported in patent US20230310542A1, “EPIGENETIC MODIFIERS TO TREAT RETINAL DEGENERATIONS” (priority 2022, published 2023).

Legend:
Type in all cases: in vivo, mouse
[1] = system: rd10 mice retina; test: RNA-seq of PN24 retina, rd10 mice
Experimental: RNA was extracted from PN24 retina of WT and rd10 animals treated with saline or GSK from PN9 till PN24. RNA integrity number (RIN) was measured using BioAnalyzer (Agilent Technologies) RNA 6000 Nano Kit to confirm RIN above 7 for each sample. The cDNA libraries were prepared using the Illumina® Stranded mRNA Prep, Ligation kit (Illumina) as per the manufacturer's instructions. Briefly, polyA RNA was purified from 200 ng of total RNA using oligo (dT) beads. The extracted mRNA fraction was subjected to fragmentation, reverse transcription, end repair, 3′— end adenylation, and adaptor ligation, followed by PCR amplification and SPRI bead purification (Beckman Coulter). The unique dual index sequences (IDT® for Illumina® RNA UD Indexes Set A, Ligation, Illumina) were incorporated in the adaptors for multiplexed high-throughput sequencing. The final product was assessed for its size distribution and concentration using BioAnalyzer High Sensitivity DNA Kit (Agilent Technologies). The libraries were pooled and diluted to 3 nM using 10 mM Tris-HCl, pH 8.5, and then denatured using the Illumina protocol. The denatured libraries were loaded onto an S1 flow cell on an Illumina NovaSeq 6000 (Illumina) and run for 2×53 cycles according to the manufacturer's instructions. De-multiplexed and adapter-trimmed sequencing reads were generated using Illumina bcl2fastq (released version 2.20.0) allowing no mismatches in the index read. BBDuk was used to trim/filter low-quality sequences using “qtrim=lr trimq=10 maq=10” option. Next, alignment of the filtered reads to the mouse reference genome (mouse Ensembl release 67 (GRCm37/NCBIM37/mm9)) was done using HISAT2 (version 2.1.0) applying --no-mixed and --no-discordant options. Read counts were calculated using HTSeq by supplementing Ensembl gene annotation (release 67: “Mus_musculus.Ensembl.NCBIM37.67.gtf”). The edgeR R package was used to fit the read counts to the negative binomial model along with the generalized linear model (GLM) and differentially expressed genes were determined by the likelihood ratio test method implemented in the edgeR. […] The ggplot2 R package was used for generating heatmaps. Raw counts and differential expression analysis generated during this study are available at GEO Submission GSE169527.
The Database for Annotation, Visualization, and Integrated Discovery (DAVID) was used for GO functional analysis.

[2] = system: rd10 mice retina; test: RT-PCR retinal gene expression, rd10 mice
Experimental: (§1) Whole retinas were isolated from animals by removing the sclera and most of the retinal pigmented epithelium (RPE) layer under PBS. The right eye retinas from each animal were taken for RNA extraction, cDNA preparation and RT-PCR. Immediately after isolation, tissue was flash frozen in liquid nitrogen and stored at −80° C. Left eye retinas from each animal were subjected to fixation, cryopreservation, sectioning, and immunofluorescence staining. RNA extraction and purification followed the manufacturer's protocol from RNeasy Mini Kit and RNA shredder (Qiagen). […] Primers purchased from Integrated DNA Technologies (IDT). For quantitative real-time PCR we used 2× iQ-SYBR Green PCR supermix from Bio-Rad. Samples in triplicate were run on an iQ5 Multicolor Real Time PCR Detection System (Bio-Rad). The relative expression level for each gene was calculated by the 2-ΔΔCt method and normalized to GAPDH.

[3] = system: WT mice retina; test: RT-PCR retinal gene expression, WT mice
Experimental: as §1

[4] = system: H3K4me2, H3K9me2; test: Anti-H3K4me2 and anti-H3K9me2 Western blot of WT retina; conditions: WT mice treated PN9 till PN24
Experimental: Both retinas from one animal were flash frozen together in liquid nitrogen and stored at −80° C. Samples for SDS-PAGE were prepared by resuspended retinas in 50 μl PBS. Laemmli sample buffer was added, samples were boiled for 10 min, resolved on Criterion TGX Precast Gel AnyKD (Bio-Rad), transferred to nitrocellulose membrane, and immunoblotted with antibodies anti-H3K9me2 or anti-H3K4me2 diluted 1:5000; anti-ACTB diluted 1:10000; anti-PDE6B (1:500). Secondary goat anti-rabbit/mouse HRP (Jackson Immuno-Research Laboratory, West Grove, PA) was diluted 1:5000. An ECL western blot detection system (Thermo Fisher Scientific) was used to visualize the bound of the primary antibody.

[5] = system: H3K4me2, H3K9me2; test: Chromatin immunoprecipitation (ChIP) on gene regulatory elements, WT retina; conditions: WT mice, GSK PN9 till PN24
Experimental: Lysate preparation for ChIP was carried out. In brief, 10 mouse retinas were rapidly isolated and rinsed in PBS on ice. Cell suspensions in PBS were crosslinked with 1% formaldehyde for 15 min at room temperature, followed by quenching with 1 M glycine, incubation on ice for 5 min, and centrifugation for 7 min at 4,000 rpm at 4° C. Pellets were resuspended in 500 μl L-CHIP buffer (1% SDS, 10 mM EDTA, 50 mM Tris-HCl pH 8.0), 1 mM PMSF and PI, sonicated twice at setting 3 for 10 sec on Sonic Dismembrator (Fisher Scientific, Model 100). Protein concentrations were adjusted to 1 mg/ml with L-CHIP buffer. ChIP was performed and subjected to quantitative PCR, primers for genomic regions are specified in Table 2.

[6] = GSK PN9 till PN24 vs saline, FDR<0.05, fold change >2 or <0.5
[7] = GSK PN9 till PN24, compared with WT
[8] = treated PN9 till PN24 vs saline

O=C(O)c1ccc(CN2CCC(CN[C@@H]3C[C@H]3c3ccccc3)CC2)cc1 [GSK, GSK2879552]
number of genes downregulated [1, 6]: 369 genes
number of genes upregulated [1, 6]: 719 genes
genes simultaneously upregulated in rd10 and WT mice retina ([1]; GSK, p<0.05, fold change >1.75 or <0.8): approximately 150 genes
expression of genes specific for rod photoreceptors ([1]; rd10+GSK retina): returned to normal expression levels
IPA canonical pathways, upregulated ([1]; rd10+GSK vs rd10): major upregulated pathway is the phototransduction pathway
IPA canonical pathways, down regulated ([1]; rd10+GSK vs rd10, next 4 most important pathways): down regulated pathways were all related to neuroinflammation
expression of resident microglia markers ([1]; rd10+GSK, Atp6v0d2, Mcoln3, Cd5l, Ctsd, C1qa, Fcrls, Hexb, Gpr34, Junb, Pclaf, Birc5): went back to normal levels of expression
expression of markers of infiltrating immune cells ([1]; rd10+GSK, H2-Aa, cd74, H2-Ab1, H2-Eb1, Cx3cr1 and others): returned to normal levels of expression
expression of amacrine cell markers Clrn1 and Efemp1 ([1]; rd10 under GSK inhibition): down-regulated
expression of cell death genes Capn9, Casp1, 12, AifI ([1]; rd10 under GSK inhibition): downregulated
expression of Gfap ([1]; rd10 under GSK inhibition, did not reach threshold conditions): decreased
expression of cone genes except S-opsin ([2]; GSK ESD PN9 till PN24): increased to WT levels
expression of Rho, Prph2, Nr2e3, Nrl, and Pde6b [2, 7]: increased dramatically and reached WT level
expression of Sag, Rom1, Crx, Cnga1 and Cngb1 [2, 7]: increased, but not to the WT level
RNA levels of H2-Aa, C1qa, Aif1 and Cx3cr1 ([2]; GSK PN9 till PN24 vs saline): reduced
expression of cone markers ([2]; GSK daily, PN24, rd10 slightly lower than WT): did not change it
gene expression of INL cell types ([2]; GSK from PN30 till PN40, assayed PN40): did not change
expression of Rgr and Hes5 ([2]; GSK treatment of rd10 mice): increase
expression of rod photoreceptor genes relative to GAPDH ([2]; treated PN9 till PN24, assayed PN24, vs saline): increased expression of almost all rod genes
expression of most other retina cell type markers ([2]; treated PN9 till PN24, except Rgr and Hes5): appeared to be decreased
expression of Capn2 and Aifm1 [2, 8]: somewhat decreased
expression of apoptotic specific genes Bcl2, Apaf1, and Casp9 [2, 8]: slightly decreased
expression of cone genes Thrb or Gnat2 [2, 8]: slightly up-regulated
expression of rod photoreceptor genes ([3]; WT mice treated PN9 till PN24): no changes
expression of transcription factors of retina development and maturation ([3]; WT retinas, treated PN9 till PN24): slightly increased expression
global levels of H3K4me2 [4]: did not change significantly
global levels of H3K9me2 [4]: No changes
H3K4me2 at promoters/regulatory elements (Ccnd1, Sox2, Hes1, Rho, Pde6b) [5]: increase in the methylation of H3K4
H3K9me2 at regulatory elements of progenitor TF and rod specific genes [5]: losing this inhibitory mark
